Assays:
[1] = tested on: male Wistar rats; assay: Promotion of gastric emptying in rats; format: in vivo, rat; settings: for number of pellets (remaining in stomach): stomach removed one hour later; for promotion (%) of gastric emptying: from comparison with remaining pellets in vehicle group
Method: Barium pellets (ca. 1 mm diameter) coated with polystyrene was intragastrically administered to male Wistar rats. One hour later, stomach was removed, and the remaining pellets were counted. The compound of Example 57 was orally administered one hour before administration of the pellets. The promotion ratio was calculated from the comparison with the number of remaining pellets in the group administered with vehicle.

[2] = tested on: Male Hartley guinea pigs; assay: Promotion of colonic transit in guinea pig; format: in vivo; settings: for ratio of colonic transit (%): colon removed one hour later; for promotion (%) of colonic transit: versus vehicle
Method: Male Hartley guinea pigs were subjected to laparotomy under ether anesthesia, and a polyethylene tube was inserted into the beginning of colon. The other end was passed under the skin to be exposed from the neck and fixed there. At day 5 postoperation, Evans blue solution was injected into the colon through the polyethylene tube. One hour later, the colon was removed, and the range of the Evans blue solution was measured, which was calculated relative to the entire length of the colon and expressed as transit ratio. The compound of Example 57 was orally administered one hour before injection of the Evans blue solution.

[3] = target: T1, 5-HT4 receptor (Cavia porcellus, UniProt O70528); assay: biochemical; format: binding, guinea pig; settings: [3H]GR113808 0.1 nM, guinea pig striatum membranes, 37°C, 30 min; IC50 converted to Ki; read-out: Affinity for receptor (Ki value, nM) 5-HT4
T1 construct: crude synapse membrane sample was prepared from guinea pig striatum; from tissue; host or cells: guinea pig striatum, crude synaptic membranes
T1 sequence (O70528 whole entry): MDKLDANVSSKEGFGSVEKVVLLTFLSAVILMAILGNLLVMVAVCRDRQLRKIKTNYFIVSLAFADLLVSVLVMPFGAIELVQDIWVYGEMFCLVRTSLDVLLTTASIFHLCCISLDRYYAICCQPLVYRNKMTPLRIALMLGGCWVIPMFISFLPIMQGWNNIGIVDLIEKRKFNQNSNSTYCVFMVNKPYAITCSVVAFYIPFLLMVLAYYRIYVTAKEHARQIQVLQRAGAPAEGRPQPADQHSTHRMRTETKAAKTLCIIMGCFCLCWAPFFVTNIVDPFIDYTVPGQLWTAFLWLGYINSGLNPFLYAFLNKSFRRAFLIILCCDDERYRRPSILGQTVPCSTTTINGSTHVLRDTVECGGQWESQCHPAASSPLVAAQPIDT
Method: Specifically, crude synapse membrane sample was prepared from guinea pig striatum, suspended in 50 mM HEPES buffer (pH 7.4) and used for testing. The test compound having several different concentrations and [3H]GR113808 (final concentration 0.1 nM) were added to this suspension and allowed to react at 37°C. Thirty minutes later, the reaction mixture was filtered by suction with cell harvester. The filter was washed with 50 mM HEPES buffer, and the radioactivity on the filter was counted by liquid scintillation counter. The non-specific binding was determined in the presence of 1 µM GR113808. The concentration of the test compound necessary for 50% inhibition (IC50) was determined from a graph and converted to a Ki value.

[4] = target: T2, 5-HT3 receptor (Rattus norvegicus, UniProt P35563); assay: 5-HT3 receptor binding test ([3H]Granisetron, crude synapse membrane from cerebral cortex); settings: values marked * are IC50; [3H]Granisetron 1.0 nM, rat cerebral cortex membranes, 25°C, 30 min; read-out: Affinity for receptor 5-HT3 (∗ shows IC50)
T2 construct: crude synapse membrane sample was prepared from rat cerebral cortex; from tissue; host or cells: rat cerebral cortex, crude synaptic membranes
T2 sequence (P35563 24-483): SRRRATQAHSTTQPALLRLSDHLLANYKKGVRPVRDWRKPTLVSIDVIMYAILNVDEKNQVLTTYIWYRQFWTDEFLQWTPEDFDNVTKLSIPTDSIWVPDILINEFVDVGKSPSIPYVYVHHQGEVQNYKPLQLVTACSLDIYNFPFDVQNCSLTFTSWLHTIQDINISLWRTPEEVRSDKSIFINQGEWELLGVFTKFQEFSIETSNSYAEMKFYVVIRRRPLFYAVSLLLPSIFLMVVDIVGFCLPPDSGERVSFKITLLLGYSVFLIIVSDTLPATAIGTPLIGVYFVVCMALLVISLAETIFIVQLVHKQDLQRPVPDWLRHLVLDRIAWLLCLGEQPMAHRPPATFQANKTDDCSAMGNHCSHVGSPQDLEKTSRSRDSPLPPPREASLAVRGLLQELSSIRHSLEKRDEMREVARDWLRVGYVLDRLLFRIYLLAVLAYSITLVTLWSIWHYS
Method: 148, pp. 297-299 (1988)], a specific 5-HT3 receptor binding test was run using, as a tracer ligand, endo-1-methyl-N-(9-methyl-9-azabicyclo[3.3.1]non-3-yl)-1H-indazole-3-carboxamide substituted by tritium (hereinafter to be referred to as [3H]Granisetron). Specifically, crude synapse membrane sample was prepared from rat cerebral cortex, suspended in 50 mM HEPES buffer (pH 7.4) and used for testing. The test compound having several different concentrations and [3H]Granisetron (final concentration 1.0 nM) were added to this suspension and allowed to react at 25°C. Thirty minutes later, the reaction mixture was filtered by suction with cell harvester. The filter was washed with 50 mM Tris buffer (pH 7.4), and the radioactivity on the filter was counted using liquid scintillation counter or β-plate. The non-specific binding was determined in the presence of 1 µM Tropisetron. The concentration of the test compound necessary for 50% inhibition (IC50) was determined from a graph and converted to a Ki value.

[5] = tested on: Male ddY mice; assay: Stimulation of defecation in mouse; format: in vivo; settings: for promotion (%) of number / promotion (%) of wet weight: 2 hours, versus vehicle; for number (of feces) / wet weight (mg) (of feces): feces excreted for 2 hours after oral administration, n=20
Method: Male ddY mice were placed in partition box, and the number and wet weight of feces excreted for 2 hours from immediately after oral administration of the compound of Example 57 were measured.

COc1cc(N)c(Cl)cc1C(=O)NCC1CCN(CCCCCC(=O)c2ccccc2)CC1 [Example 57, 4-amino-5-chloro-2-methoxy-N-((1-(6-oxo-6-phenylhexyl)piperidin-4-yl)methyl)benzamide]
number of pellets (remaining in stomach) ([1]; 0.3 mg/kg p.o. one hour before barium pellets): 28.2 ±1.3
promotion (%) of gastric emptying ([1]; 0.3 mg/kg p.o.): 0%
number of pellets (remaining in stomach) ([1]; 1 mg/kg p.o. one hour before barium pellets): 24.3 ±2.5
promotion (%) of gastric emptying ([1]; 1 mg/kg p.o.): 14%
number of pellets (remaining in stomach) ([1]; 3 mg/kg p.o. one hour before barium pellets, P<0.05): 19.0 ±2.6
promotion (%) of gastric emptying ([1]; 3 mg/kg p.o.): 32%
number of pellets (remaining in stomach) ([1]; 10 mg/kg p.o. one hour before barium pellets, P<0.01): 13.3 ±3.0
promotion (%) of gastric emptying ([1]; 10 mg/kg p.o.): 53%
ratio of colonic transit (%) ([2]; 0.1 mg/kg p.o. one hour before Evans blue injection, n=16): 54.5±8.0%
promotion (%) of colonic transit ([2]; 0.1 mg/kg p.o.): 23%
ratio of colonic transit (%) ([2]; 0.3 mg/kg p.o. one hour before Evans blue injection, n=16): 54.7±5.9%
promotion (%) of colonic transit ([2]; 0.3 mg/kg p.o.): 24%
ratio of colonic transit (%) ([2]; 1 mg/kg p.o. one hour before Evans blue injection, n=15, P<0.05): 71.8±6.9 %
promotion (%) of colonic transit ([2]; 1 mg/kg p.o.): 62%
ratio of colonic transit (%) ([2]; 3 mg/kg p.o. one hour before Evans blue injection, n=14, P<0.05): 73.2±6.3 %
promotion (%) of colonic transit ([2]; 3 mg/kg p.o.): 66%
Ki [3]: 2.4 nM
IC50 [4]: > 1000 nM
promotion (%) of number ([5]; 0.1 mg/kg p.o.): 70%
promotion (%) of wet weight ([5]; 0.1 mg/kg p.o.): 69%
number (of feces) ([5]; 0.1 mg/kg p.o.): 3.4±0.3
wet weight (mg) (of feces) ([5]; 0.1 mg/kg p.o.): 59.2 ± 6.5 mg
promotion (%) of number ([5]; 0.3 mg/kg p.o.): 135%
promotion (%) of wet weight ([5]; 0.3 mg/kg p.o.): 136%
number (of feces) ([5]; 0.3 mg/kg p.o., P<0.01): 4.7±0.5
wet weight (mg) (of feces) ([5]; 0.3 mg/kg p.o., P<0.01): 82.7 ± 11.5 mg
promotion (%) of number ([5]; 1 mg/kg p.o.): 130%
promotion (%) of wet weight ([5]; 1 mg/kg p.o.): 120%
number (of feces) ([5]; 1 mg/kg p.o., P<0.01): 4.6±0.6
wet weight (mg) (of feces) ([5]; 1 mg/kg p.o., P<0.01): 77.2 ± 11.9 mg
promotion (%) of number ([5]; 3 mg/kg p.o.): 135%
promotion (%) of wet weight ([5]; 3 mg/kg p.o.): 132%
number (of feces) ([5]; 3 mg/kg p.o., P<0.01): 4.7±0.5
wet weight (mg) (of feces) ([5]; 3 mg/kg p.o., P<0.01): 81.6 ± 10.4 mg

Source: patent EP0873990A1, “BENZOIC ACID COMPOUNDS AND MEDICINAL USE THEREOF” (YOSHITOMI PHARMACEUTICAL INDUSTRIES, LTD., priority 1995, dated 1997)
